Results reported in paper PMC4114533, “Synthesis, Anti-tubulin and Antiproliferative SAR of Steroidomimetic Dihydroisoquinolinones” (Chemmedchem, 2014).
Read-outs that look alike come from different tables or passages of the source.

What was measured:
Bovine brain tubulin [1] = tested on: Bovine brain tubulin; design: method as in PMID 20225862; settings: data taken from the literature ref 3; read-out: TP IC50 (tubulin polymerisation); cited from earlier work
Bovine brain tubulin [2] = target: T1, Bovine brain tubulin (Bos taurus, UniProt P81947+Q6B856); design: method as in PMID 20225862; settings: data taken from the literature ref 3; cited from earlier work
T1 construct: Bovine brain tubulin, prepared as described previously,[16] was used in studies presented here; from tissue; host or cells: bovine brain

[3] = tested on: DU-145 human prostate cancer cells; assay: Antiproliferative assay (WST-1, 96 h), DU-145; format: cell-based; settings: for GI50: Homo sapiens, DU-145 cells, 96 h, WST-1, mean of three determinations
Experimental: (§1) Cell lines: DU-145 (brain metastasis carcinoma of the prostate) and MDA MB-231 (metastatic pleural effusion of breast adenocarcinoma) established human cell lines were obtained from ATCC Global Bioresource Center. Cells were maintained in a 5 % CO2 humidified atmosphere at 37 °C in RPMI-1640 medium, supplemented with 10 % fetal bovine serum, penicillin, (100 U mL^−1), and streptomycin (0.1 mg mL^−1). The effect of drugs on tubule formation was assessed using an angiogenesis kit (TCS-Cellworks).
(§2) Antiproliferative assays: DU-145 and MDA MB-231 cells were seeded into 96-well microtitre plates (5000 cells per well) and treated with compound (10^−9–10^−4 M) or with vehicle control. At 96 h post-treatment, live cell counts were determined by WST-1 cell proliferation assay (Roche, Penzberg, Germany), as per the manufacturer’s instructions. Viability results were expressed as a percentage of mean control values resulting in the calculation of the 50 % growth inhibition (GI50). All experiments were performed in triplicate.

[4] = tested on: MDA MB-231 human breast cancer cells; assay: Antiproliferative assay (WST-1, 96 h), MDA MB-231; format: cell-based; settings: MDA MB-231 cells, WST-1, mean of three determinations
Experimental: as §1, §2

Bovine brain tubulin [5] = assay: Tubulin polymerisation (assembly) assay; format: biochemical; settings: 10 μM tubulin, mean ±SD of at least two determinations; read-out: TP IC50 (tubulin polymerisation)
Experimental: (§3) Tubulin assays: Bovine brain tubulin, prepared as described previously,[16] was used in studies presented here. Assembly IC50 values were determined as described in detail elsewhere.[17] Briefly, 1.0 mg mL^−1 (10 μM) tubulin was pre-incubated without GTP with varying compound concentrations for 15 min at 30 °C. Reaction mixtures were placed on ice, and GTP (final concentration, 0.4 mM) was added. The reaction mixtures were transferred to cuvettes, held at 0 °C in a recording spectrophotometer. Baselines were established at 0 °C, and increase in turbidity was followed for 20 min following a rapid (<30 s) jump to 30 °C. Compound concentrations required to decrease the turbidity increase by 50 % were determined. The method for measuring inhibition of the binding of [^3H]colchicine to tubulin was described in detail previously.[18] Reaction mixtures contained 0.1 mg mL^−1 (1.0 μM) tubulin, 5.0 μM [^3H]colchicine, and potential inhibitor at 5.0 μM. […] A minimum of two experiments were performed with each compound.

Bovine brain tubulin [6] = target: T1, Bovine brain tubulin; assay: Inhibition of [3H]colchicine binding to tubulin; settings: mean ±SD
Experimental: as §3

T1 sequence (Q6B856 whole entry): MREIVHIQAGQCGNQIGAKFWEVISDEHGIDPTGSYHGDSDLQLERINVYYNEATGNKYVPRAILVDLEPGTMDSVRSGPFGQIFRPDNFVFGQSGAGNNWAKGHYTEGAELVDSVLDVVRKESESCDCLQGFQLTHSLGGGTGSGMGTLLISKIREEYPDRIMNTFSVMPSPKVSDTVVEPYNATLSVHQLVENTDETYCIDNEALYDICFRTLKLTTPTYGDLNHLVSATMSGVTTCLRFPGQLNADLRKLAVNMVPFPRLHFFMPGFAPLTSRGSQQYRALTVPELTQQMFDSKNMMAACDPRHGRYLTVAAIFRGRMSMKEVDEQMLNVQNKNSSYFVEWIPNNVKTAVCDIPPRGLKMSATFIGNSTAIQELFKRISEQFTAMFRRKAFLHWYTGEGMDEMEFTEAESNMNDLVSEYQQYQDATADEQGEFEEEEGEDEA
T1 sequence (P81947 whole entry): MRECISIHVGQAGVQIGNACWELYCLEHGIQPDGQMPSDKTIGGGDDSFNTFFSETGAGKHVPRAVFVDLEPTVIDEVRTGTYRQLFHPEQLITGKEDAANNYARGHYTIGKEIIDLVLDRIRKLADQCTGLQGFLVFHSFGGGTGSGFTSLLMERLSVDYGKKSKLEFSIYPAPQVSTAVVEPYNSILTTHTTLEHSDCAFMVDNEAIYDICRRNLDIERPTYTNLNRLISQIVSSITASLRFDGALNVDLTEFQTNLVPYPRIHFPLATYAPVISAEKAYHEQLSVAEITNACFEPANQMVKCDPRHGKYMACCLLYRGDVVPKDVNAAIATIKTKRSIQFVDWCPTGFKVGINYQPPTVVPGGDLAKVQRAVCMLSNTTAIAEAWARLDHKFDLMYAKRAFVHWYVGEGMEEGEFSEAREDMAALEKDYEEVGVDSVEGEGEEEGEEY

Compound | GI50 [3] | melting point | GI50 [4] | also measured
COc1cc2c(cc1OS(N)(=O)=O)CC[C@@H]1[C@@H]2CC[C@]2(C)[C@@H](OS(N)(=O)=O)CC[C@@H]12 [1 a] | – | – | – | IC50 (Bovine brain tubulin [1]): 2.2 ± 0.3 µM; CB [% inhib.] 5 μM inhibitor (Bovine brain tubulin [2]): 28±3%
COc1cc2c(cc1OS(N)(=O)=O)CC[C@@H]1[C@@H]2CC[C@]2(C)[C@@H](CC#N)CC[C@@H]12 [1 b] | – | – | – | IC50 (Bovine brain tubulin [1]): 1.3 ± 0.08 µM; CB [% inhib.] 5 μM inhibitor (Bovine brain tubulin [2]): 78±0.9%
CCc1cc2c(cc1OS(N)(=O)=O)CC[C@@H]1[C@@H]2CC[C@]2(C)[C@@H](OS(N)(=O)=O)CC[C@@H]12 [1 c] | – | – | – | IC50 (Bovine brain tubulin [1]): 1.3 ± 0.01 µM; CB [% inhib.] 5 μM inhibitor (Bovine brain tubulin [2]): 45±4%
COc1cccc(CN2CCc3cc(O)c(OC)cc3C2=O)c1 [8 b, 6-Hydroxy-7-methoxy-2-(3-methoxybenzyl)-3,4-dihydroisoquinolin-1(2H)-one] | > 100 µM | 181 to 182 °C | – | –
COc1ccc(CN2CCc3cc(O)c(OC)cc3C2=O)cc1 [8 c, 6-Hydroxy-7-methoxy-2-(4-methoxybenzyl)-3,4-dihydroisoquinolin-1(2H)-one] | > 100 µM | 171 to 172 °C | – | –
COc1cccc(CN2CCc3cc(OS(N)(=O)=O)c(OC)cc3C2=O)c1 [9 b, 7-Methoxy-2-(3-methoxybenzyl)-6-sulfamoyloxy-3,4-dihydroisoquinolin-1(2H)-one] | > 100 µM | 139 to 140 °C | – | –
COc1ccc(S(=O)(=O)N2CCc3cc(O)c(OC)cc3C2=O)cc1 [11 c, 6-Hydroxy-7-methoxy-2-((4-methoxyphenyl)sulfonyl)-3,4-dihydroisoquinolin-1(2H)-one] | > 100 µM | 202 to 204 °C | > 100 µM | –
COc1cc2c(cc1O)CCN(S(=O)(=O)c1cccc(Cl)c1)C2=O [11 d, 6-Hydroxy-7-methoxy-2-((3-chlorophenyl)sulfonyl)-3,4-dihydroisoquinolin-1(2H)-one] | > 100 µM | 178 to 181 °C | > 100 µM | –
COC(=O)c1ccccc1S(=O)(=O)N1CCc2cc(O)c(OC)cc2C1=O [11 e, Methyl 2-((6-hydroxy-7-methoxy-1-oxo-3,4-dihydroisoquinolin-2(1H)-yl)sulfonyl)benzoate] | > 100 µM | 236 to 239 °C | > 100 µM | –
COc1cc2c(cc1OS(N)(=O)=O)CCN(S(=O)(=O)c1ccccc1OC)C2=O [12 a, 7-Methoxy-2-((2-methoxyphenyl)sulfonyl)-6-(sulfamoyloxy)-3,4-dihydroisoquinolin-1(2H)-one] | > 100 µM | 195 to 197 °C | > 100 µM | –
COc1cccc(S(=O)(=O)N2CCc3cc(OS(N)(=O)=O)c(OC)cc3C2=O)c1 [12 b, 7-Methoxy-2-((3-methoxyphenyl)sulfonyl)-6-(sulfamoyloxy)-3,4-dihydroisoquinolin-1(2H)-one] | > 100 µM | 164 to 166 °C | > 100 µM | –
COc1cc2c(cc1OS(N)(=O)=O)CCN(S(=O)(=O)c1cccc(Cl)c1)C2=O [12 d, 2-((3-Chlorophenyl)sulfonyl)-7-methoxy-6-(sulfamoyloxy)-3,4-dihydroisoquinolin-1(2H)-one] | > 100 µM | 170 to 173 °C | > 100 µM | –
COC(=O)c1ccccc1S(=O)(=O)N1CCc2cc(OS(N)(=O)=O)c(OC)cc2C1=O [12 e, Methyl 2-((7-methoxy-1-oxo-6-(sulfamoyloxy)-3,4-dihydroisoquinolin-2(1H)-yl)sulfonyl)benzoate] | > 100 µM | 181 to 186 °C | 13 µM | –
COc1cccc(C(=O)N2CCc3cc(O)c(OC)cc3C2=O)c1 [16 b, 6-Hydroxy-2-(3-methoxybenzoyl)-7-methoxy-3,4-dihydroisoquinolin-1(2H)-one] | 3.63 µM | – | 1.89 µM | –
COc1cc2c(cc1O)CCN(C(=O)c1cccc(C#N)c1)C2=O [16 c, 2-(3-Cyanobenzoyl)-6-hydroxy-7-methoxy-3,4-dihydroisoquinolin-1(2H)-one] | 70 µM | – | 37.4 µM | –
COc1cc2c(cc1O)CCN(C(=O)c1ccc(OC)c(OC)c1)C2=O [16 e, 6-Hydroxy-2-(3,4-dimethoxybenzoyl)-7-methoxy-3,4-dihydroisoquinolin-1(2H)-one] | 2.39 µM | 199 to 200 °C | 1.6 µM | –
COc1cc2c(cc1OS(N)(=O)=O)CCN(C(=O)c1ccccc1OC)C2=O [17 a, 2-(2-Methoxybenzoyl)-7-methoxy-6-sulfamoyloxy-3,4-dihydroisoquinolin-1(2H)-one] | 9.1 µM | – | 7.1 µM | –
COc1cccc(C(=O)N2CCc3cc(OS(N)(=O)=O)c(OC)cc3C2=O)c1 [17 b, 2-(3-Methoxybenzoyl)-7-methoxy-6-sulfamoyloxy-3,4-dihydroisoquinolin-1(2H)-one] | 5.3 µM | – | 3.5 µM | –
COc1cc2c(cc1OS(N)(=O)=O)CCN(C(=O)c1cccc(C#N)c1)C2=O [17 c, 2-(3-Cyanobenzoyl)-7-methoxy-6-sulfamoyloxy-3,4-dihydroisoquinolin-1(2H)-one] | 25 µM | 171 to 172 °C | > 100 µM | –
COc1ccc(C(=O)N2CCc3cc(OS(N)(=O)=O)c(OC)cc3C2=O)cc1 [17 d, 2-(4-Methoxybenzoyl)-7-methoxy-6-sulfamoyloxy-3,4-dihydroisoquinolin-1(2H)-one] | > 100 µM | 171 to 172 °C | – | antiproliferative activity (in words) ([3]; in vitro antiproliferative activity, result in words): inactive
COc1ccc(C(=O)N2CCc3cc(OS(N)(=O)=O)c(OC)cc3C2=O)cc1OC [17 e, 2-(3,4-Dimethoxybenzoyl)-7-methoxy-6-sulfamoyloxy-3,4-dihydroisoquinolin-1(2H)-one] | 3.4 µM | – | 2.08 µM | –
COc1cc2c(cc1OS(N)(=O)=O)CCN(C(=O)c1cc(OC)c(OC)c(OC)c1)C2=O [17 g, 7-Methoxy-2-(3,4,5-trimethoxybenzoyl)-6-sulfamoyloxy-3,4-dihydroisoquinolin-1(2H)-one] | 0.166 µM | – | 0.275 µM | IC50 (Bovine brain tubulin [5]): 1.2 ± 0.03 µM; inhibition at 5 µM (Bovine brain tubulin [6]; 5 μM inhibitor, 1.0 μM tubulin, 5.0 μM [3H]colchicine, read-out: CB [% inhib.] 5 μM inhibitor): 85 ± 2%
COc1ccc(/C=C\c2cc(OC)c(OC)c(OC)c2)cc1O [CA-4, combretastatin A-4, reference compound] | – | – | – | inhibition at 1 µM (Bovine brain tubulin [6]; 1 μM inhibitor, read-out: CB [% inhib.] 1 μM inhibitor): 90 ± 0.2%
